{"source": "patent US5447954A", "about": "“Phenylderivate as inhibitors of ATP citrate lyase” (SmithKline Beecham p.l.c., priority 1992, dated 1995)", "key": {"HepG2 cells": {"tested_on": "HepG2 cells", "experiment": "Effect of compounds on cholesterol (CL) and fatty acid (FA) synthesis in HepG2 cells", "assay_type": "cell-based", "conditions": "Homo sapiens; for activity at 1000 µM: Conc. 1000 μM; for activity at 3 µM: Conc. 3 μM; for activity at 10 µM: Conc. 10 μM; for activity at 30 µM: Conc. 30 μM", "experimental": "2. Measurement of effect of compounds on cholesterol (CL) and fatty acid (FA) synthesis in HepG2 Cells HepG2 cells were cultured in 24-well cell culture plates in DMEM (Dulbecco's Modified Eagle's Medium) containing Hepes (20 mM), bicarbonate (10 mM), glutamine (2 mM) and foetal calf serum (10% w/v). Once the cells had grown to between 80% and 90% confluence, the medium was replaced by DMEM without the addition of foetal calf serum and the cells incubated overnight. The rates of cholesterol and fatty acid synthesis were then measured by the addition of ^3 H2 O, to a specific radioactivity of 71 mCi/mmol, for the final 90 min of the incubation. Vehicle or test compound were added to the medium either 1.5 or 14.5 hr prior to the addition of ^3 H2 O to give the final desired concentration. Incubations were terminated and the rates of cholesterol and fatty acid synthesis determined from the amounts of ^3 H incorporated into cellular cholesterol and fatty acids as described previously (Berkhout et al.; Biochem J., 1990, 272, 181)."}, "rat ATP citrate lyase": {"target": "T1, rat ATP citrate lyase (Rattus norvegicus, UniProt P16638)", "T1 construct": "prior to removal of the livers; ATP Citrate lyase was prepared according to the method of Wraight et al; from tissue; host or cells: liver of male Wistar rats (fasted, then fed a high carbohydrate diet)", "T1 sequence (P16638 1-1100)": "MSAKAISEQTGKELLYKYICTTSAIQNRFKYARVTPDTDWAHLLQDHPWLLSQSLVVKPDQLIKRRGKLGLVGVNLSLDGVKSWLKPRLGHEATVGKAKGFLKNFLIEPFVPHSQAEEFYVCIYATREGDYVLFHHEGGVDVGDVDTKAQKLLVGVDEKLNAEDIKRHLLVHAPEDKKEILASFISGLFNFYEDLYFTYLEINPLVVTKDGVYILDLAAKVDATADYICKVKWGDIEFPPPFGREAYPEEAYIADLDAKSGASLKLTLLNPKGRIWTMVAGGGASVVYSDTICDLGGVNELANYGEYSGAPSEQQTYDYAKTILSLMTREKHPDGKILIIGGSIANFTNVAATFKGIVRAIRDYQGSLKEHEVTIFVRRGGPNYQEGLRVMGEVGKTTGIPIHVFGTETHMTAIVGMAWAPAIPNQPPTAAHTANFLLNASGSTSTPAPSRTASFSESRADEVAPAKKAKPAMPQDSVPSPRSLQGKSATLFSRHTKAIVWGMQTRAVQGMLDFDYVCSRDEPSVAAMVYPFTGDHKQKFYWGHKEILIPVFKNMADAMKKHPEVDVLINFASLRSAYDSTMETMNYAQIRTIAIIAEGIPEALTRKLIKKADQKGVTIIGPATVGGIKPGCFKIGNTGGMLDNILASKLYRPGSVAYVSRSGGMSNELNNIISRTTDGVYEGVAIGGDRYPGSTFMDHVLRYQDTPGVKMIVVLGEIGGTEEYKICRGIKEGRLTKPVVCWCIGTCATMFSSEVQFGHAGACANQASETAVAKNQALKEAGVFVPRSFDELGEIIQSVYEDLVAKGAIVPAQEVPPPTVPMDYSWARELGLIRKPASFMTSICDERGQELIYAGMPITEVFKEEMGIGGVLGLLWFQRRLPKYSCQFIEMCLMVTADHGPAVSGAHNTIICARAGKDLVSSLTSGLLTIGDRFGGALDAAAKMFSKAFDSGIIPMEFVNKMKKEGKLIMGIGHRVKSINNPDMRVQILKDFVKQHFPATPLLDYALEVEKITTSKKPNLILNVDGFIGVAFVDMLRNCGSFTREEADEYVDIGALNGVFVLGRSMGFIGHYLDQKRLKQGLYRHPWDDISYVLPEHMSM", "experiment": "Assay of ATP Citrate lyase in the presence of inhibitors (rat enzyme)", "assay_type": "biochemical", "conditions": "100 μM citrate, pH 8.0, 25° C.", "experimental": "1. RAT ATP CITRATE LYASE (ACL) ASSAY\nPurification of ATP Citrate lyase-human and rat enzymes\nMale Wistar rats were fasted for 24 h, then fed on a high carbohydrate diet for 72 h prior to removal of the livers. ATP Citrate lyase was prepared according to the method of Wraight et al (Anal. Biochem., 1985, 144, 604-609) with modifications for large scale purification according to Wells (Eur. J. Biochem., 1991, 199, 163-168). Protein obtained by this method was pure as judged by SDS-PAGE.\nAssay of ATP Citrate lyase in the presence of inhibitors\n(§1) ATP Citrate lyase activity was assayed at 25° C. by reducing the oxaloacetate produced with malate dehydrogenase and NADH while monitoring at 340 nm using a Beckman DU50 spectrophotometer (according to the method of Linnet al (J. Biol. Chem., 1979, 254, 1691-1698)). Briefly, ATP citrate lyase (human or rat) was added to a 1 ml cuvette containing 50 mM Tris/HCl, pH=8.0, 0.2 mM NADH, 10 mM MgCl2, 10 mM KCl, 5 mM ATP, 200 μM coenzyme A, 10 mM dithiothreitol and malate dehydrogenase. An aqueous solution of inhibitor was added (for inhibitors which were insoluble in water, a stock solution was prepared in DMSO. However the final DMSO concentration in the cuvette was not allowed to exceed 1%.). Finally, tripotassium citrate was added to 100 μM final. This is Km for citrate (Wells et al (Eur. J. Biochem., 1992, 204, 249-255) and Houston et al (Biochim. Biophys. Acta, 1985, 844, 233-239)). Data analysis was performed using the curve fitting package Enzfitter (Elsevier Biosoft). For competitive inhibitors data was fitted to the equation\nwhere v is the observed rate and I is the concentration of inhibitor added. Thus the dissociation constant Ki for the inhibitor could be found."}, "human ATP citrate lyase": {"target": "T2, human ATP citrate lyase (Homo sapiens, UniProt P53396)", "T2 construct": "made in house", "T2 sequence (P53396 1-1101)": "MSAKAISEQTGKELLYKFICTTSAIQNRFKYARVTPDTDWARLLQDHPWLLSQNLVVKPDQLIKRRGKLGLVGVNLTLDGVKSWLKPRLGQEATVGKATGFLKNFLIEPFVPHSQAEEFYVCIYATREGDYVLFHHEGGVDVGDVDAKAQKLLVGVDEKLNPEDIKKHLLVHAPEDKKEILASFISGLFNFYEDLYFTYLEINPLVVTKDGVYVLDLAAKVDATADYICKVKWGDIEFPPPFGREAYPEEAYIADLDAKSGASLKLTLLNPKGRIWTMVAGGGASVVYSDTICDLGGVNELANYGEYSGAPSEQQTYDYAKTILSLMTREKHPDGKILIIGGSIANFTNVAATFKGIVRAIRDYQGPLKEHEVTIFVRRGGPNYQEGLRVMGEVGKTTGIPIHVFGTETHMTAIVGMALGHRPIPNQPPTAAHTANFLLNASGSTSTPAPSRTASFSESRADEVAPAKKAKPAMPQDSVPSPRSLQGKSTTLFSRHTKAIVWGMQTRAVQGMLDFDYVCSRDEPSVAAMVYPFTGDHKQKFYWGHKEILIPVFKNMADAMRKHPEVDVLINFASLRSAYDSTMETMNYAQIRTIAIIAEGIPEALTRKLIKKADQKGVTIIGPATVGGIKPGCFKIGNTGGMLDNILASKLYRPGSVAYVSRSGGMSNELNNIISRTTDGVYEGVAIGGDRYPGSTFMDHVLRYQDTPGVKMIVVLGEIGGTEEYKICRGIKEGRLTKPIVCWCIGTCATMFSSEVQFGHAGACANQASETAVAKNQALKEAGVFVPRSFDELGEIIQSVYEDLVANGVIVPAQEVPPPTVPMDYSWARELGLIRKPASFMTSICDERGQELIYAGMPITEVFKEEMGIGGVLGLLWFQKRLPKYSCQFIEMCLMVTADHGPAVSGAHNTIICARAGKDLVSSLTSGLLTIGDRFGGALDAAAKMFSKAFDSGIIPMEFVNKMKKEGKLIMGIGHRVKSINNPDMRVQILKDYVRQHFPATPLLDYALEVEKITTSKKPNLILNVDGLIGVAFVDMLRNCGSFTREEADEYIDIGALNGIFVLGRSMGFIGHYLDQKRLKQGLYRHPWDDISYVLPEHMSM", "experiment": "Assay of ATP Citrate lyase in the presence of inhibitors (human enzyme)", "assay_type": "biochemical", "conditions": "100 μM citrate, pH 8.0, 25° C.", "experimental": "as §1, with “Purification of ATP Citrate lyase-human and rat enzymes (ii) human enzyme Human ATP citrate lyase was prepared as described in European Journal of Biochemistry, 1992, 204, 491-99, with modifications for large scale purification according to Wells as referred to above. Protein obtained by this method was pure as judged by SDS-PAGE. Assay of ATP Citrate lyase in the presence of inhibitors ATP Citrate” for “ATP Citrate”, “method of […] al (J.” for “method of Linnet al (J.”, “(Elsevier Biosoft). […]” for “(Elsevier Biosoft). For competitive inhibitors data was fitted to the equation”"}, "[1]": {"tested_on": "Sprague Dawley rat plasma cholesterol and triglyceride levels", "experiment": "Measurement of hyperlipidaemic activity in rats: plasma cholesterol and triglyceride levels", "assay_type": "in vivo", "conditions": "in diet at 0.125% (w:w) for 7 days", "experimental": "(§2) 3. Measurement of hyperlipidaemic activity in rats and dogs\nThe compound of example 2 was administered to Spmgue Dawley rats in their diet at a concentration of 0.125% (w:w) for 7 days."}, "[2]": {"tested_on": "Beagle dog plasma cholesterol and triglyceride levels", "experiment": "Measurement of hyperlipidaemic activity in dogs: plasma cholesterol and triglyceride levels", "assay_type": "in vivo", "conditions": "male Beagle dogs; 25 mg/kg/day for 2 weeks", "experimental": "as §2\n25 (b) Dog The compound of example 2 was administered to male Beagle dogs at a level of 25 mg/kg/day for 2 weeks."}}, "note": "Where a name gives a salt, the structure may show the parent alone. Read-outs that look alike come from different tables or passages of the source.", "data": [{"molecule": "O=C(O)C[C@](O)(C[C@@H](O)CCCCCCc1ccc(Cl)cc1Cl)C(=O)O", "note": "(relative stereo) [Example 1, ±(3R*, 5S*) 3-Carboxy-11-(2,4-dichlorophenyl)-3,5-dihydroxyundecanoic acid, disodium salt]", "values": [{"measurement": "activity at 1000 µM", "setting": "HepG2 cells; read-out: CL synthesis", "value": "80 ± 6", "unit": "%"}, {"measurement": "activity at 1000 µM", "setting": "HepG2 cells; read-out: FA synthesis", "value": "123 ± 3", "unit": "%"}, {"measurement": "Ki", "setting": "rat ATP citrate lyase", "value": 800, "unit": "nM"}]}, {"molecule": "O=C(O)[C@H](O)[C@@]1(O)C[C@@H](CCCCCCc2ccc(Cl)cc2Cl)OC1=O", "note": "(relative stereo) [Example 11, ±(1'R*,3S*,5R*) 3-[Carboxy(hydroxy)methyl]-5-[6-(2,4-dichlorophenyl)hexyl]-3-hydroxytetrahydrofuran-2-one]", "values": [{"measurement": "activity at 3 µM", "setting": "HepG2 cells; read-out: CL synthesis", "value": "69 ± 13", "unit": "%"}, {"measurement": "activity at 3 µM", "setting": "HepG2 cells; read-out: FA synthesis", "value": "74 ± 11", "unit": "%"}, {"measurement": "activity at 10 µM", "setting": "HepG2 cells; read-out: CL synthesis", "value": "86 ± 29", "unit": "%"}, {"measurement": "activity at 10 µM", "setting": "HepG2 cells; read-out: FA synthesis", "value": "76 ± 13", "unit": "%"}]}, {"molecule": "O=C(O)C[C@](O)(C[C@@H](O)CCCCCCc1ccc(Cl)cc1Cl)C(=O)O", "note": "(single isomer, unassigned) [Example 20, (-) (3R*,5S*) 3-Carboxy-11-(2 4-dichlorophenyl)-3 5-dihydroxyundecanoic acid, disodium salt]", "values": [{"measurement": "Ki", "setting": "human ATP citrate lyase", "value": 690, "unit": "nM"}, {"measurement": "Ki", "setting": "rat ATP citrate lyase", "value": 700, "unit": "nM"}]}, {"molecule": "O=C(O)C[C@](O)(C[C@@H](O)CCCCCCc1ccc(Cl)cc1Cl)C(=O)O", "note": "(single isomer, unassigned) [Example 18, (+) (3R*,5S*) 3-Carboxy-11-(2,4-dichlorophenyl)-3,5-dihydroxyundecanoic acid, disodium salt]", "values": [{"measurement": "Ki", "setting": "human ATP citrate lyase", "value": 760, "unit": "nM"}, {"measurement": "Ki", "setting": "rat ATP citrate lyase", "value": 700, "unit": "nM"}]}, {"molecule": "O=C(O)C[C@]1(O)C[C@H](CCCCCCc2ccc(Cl)cc2Cl)OC1=O", "note": "(relative stereo) [Example 2, ±(3R*, 5S*) 3-Carboxymethyl-5-[6-(2,4-dichlorophenyl)hexyl]3-hydroxytetrahydrofuran-2-one]", "values": [{"measurement": "reduction of plasma cholesterol levels", "setting": "[1]", "value": 30, "unit": "%"}, {"measurement": "reduction of plasma triglyceride levels", "setting": "[1]", "value": 64, "unit": "%"}, {"measurement": "activity at 30 µM", "setting": "HepG2 cells; read-out: CL synthesis", "value": "8 ± 3", "unit": "%"}, {"measurement": "activity at 30 µM", "setting": "HepG2 cells; read-out: FA synthesis", "value": "32 ± 3", "unit": "%"}, {"measurement": "activity against ATP citrate lyase (rat)", "setting": "rat ATP citrate lyase", "value": "inactive"}, {"measurement": "reduction of plasma cholesterol levels", "setting": "[2]", "value": "20-25%"}, {"measurement": "reduction of plasma triglyceride levels", "setting": "[2]", "value": "20-25%"}]}]}
